Measured values from patent US9403798B2, “Triazinone compound and T-type calcium channel inhibitor” (NISSAN CHEMICAL INDUSTRIES, LTD., priority 2012, dated 2016).

Target: T1, Human T-type calcium channel (Cav 3.2) (Homo sapiens, UniProt O95180)
T1 construct: Edward Perez-Reyes, University of Virginia, USA; host or cells: HEK293
Assay: Calcium Influx Inhibition Assay
Format: cell-based
Details: Human T-type calcium channel (Cav 3.2) expressing HEK293 cells, FLIPR Calcium 4 fluorescence
Experimental: 1. Calcium Influx Inhibition Assay
Human T-type calcium channel (Cav 3.2) expressing HEK293 cells were obtained from Prof. Edward Perez-Reyes, University of Virginia, USA. The calcium-sensitive fluorescent dye used was FLIPR Calcium 4 Assay Kit (Molecular Devices). To a black 96-well plate with a clear bottom coated with type I collagen, the human T-type calcium channel (Cav 3.2) expressing HEK293 cells were seeded and cultured overnight, and the culture medium was removed. A solution of the calcium-sensitive fluorescent dye was added, and the plate was incubated at 37° C. in an atmosphere of 5% carbon dioxide for 30 minutes. To the plate, a diluted solution of a compound was added, and the whole was further incubated at 37° C. in an atmosphere of 5% carbon dioxide for 30 minutes. While fluorescence was continuously analyzed from the bottom with a FlexStation 3 (Molecular Devices), a calcium solution was added. […] From the rise in the fluorescence from the base line, the inhibition percentage was calculated. The logarithms of compound concentrations were plotted with respect to the inhibition activities to give an IC50 value.

T1 sequence (O95180 whole entry): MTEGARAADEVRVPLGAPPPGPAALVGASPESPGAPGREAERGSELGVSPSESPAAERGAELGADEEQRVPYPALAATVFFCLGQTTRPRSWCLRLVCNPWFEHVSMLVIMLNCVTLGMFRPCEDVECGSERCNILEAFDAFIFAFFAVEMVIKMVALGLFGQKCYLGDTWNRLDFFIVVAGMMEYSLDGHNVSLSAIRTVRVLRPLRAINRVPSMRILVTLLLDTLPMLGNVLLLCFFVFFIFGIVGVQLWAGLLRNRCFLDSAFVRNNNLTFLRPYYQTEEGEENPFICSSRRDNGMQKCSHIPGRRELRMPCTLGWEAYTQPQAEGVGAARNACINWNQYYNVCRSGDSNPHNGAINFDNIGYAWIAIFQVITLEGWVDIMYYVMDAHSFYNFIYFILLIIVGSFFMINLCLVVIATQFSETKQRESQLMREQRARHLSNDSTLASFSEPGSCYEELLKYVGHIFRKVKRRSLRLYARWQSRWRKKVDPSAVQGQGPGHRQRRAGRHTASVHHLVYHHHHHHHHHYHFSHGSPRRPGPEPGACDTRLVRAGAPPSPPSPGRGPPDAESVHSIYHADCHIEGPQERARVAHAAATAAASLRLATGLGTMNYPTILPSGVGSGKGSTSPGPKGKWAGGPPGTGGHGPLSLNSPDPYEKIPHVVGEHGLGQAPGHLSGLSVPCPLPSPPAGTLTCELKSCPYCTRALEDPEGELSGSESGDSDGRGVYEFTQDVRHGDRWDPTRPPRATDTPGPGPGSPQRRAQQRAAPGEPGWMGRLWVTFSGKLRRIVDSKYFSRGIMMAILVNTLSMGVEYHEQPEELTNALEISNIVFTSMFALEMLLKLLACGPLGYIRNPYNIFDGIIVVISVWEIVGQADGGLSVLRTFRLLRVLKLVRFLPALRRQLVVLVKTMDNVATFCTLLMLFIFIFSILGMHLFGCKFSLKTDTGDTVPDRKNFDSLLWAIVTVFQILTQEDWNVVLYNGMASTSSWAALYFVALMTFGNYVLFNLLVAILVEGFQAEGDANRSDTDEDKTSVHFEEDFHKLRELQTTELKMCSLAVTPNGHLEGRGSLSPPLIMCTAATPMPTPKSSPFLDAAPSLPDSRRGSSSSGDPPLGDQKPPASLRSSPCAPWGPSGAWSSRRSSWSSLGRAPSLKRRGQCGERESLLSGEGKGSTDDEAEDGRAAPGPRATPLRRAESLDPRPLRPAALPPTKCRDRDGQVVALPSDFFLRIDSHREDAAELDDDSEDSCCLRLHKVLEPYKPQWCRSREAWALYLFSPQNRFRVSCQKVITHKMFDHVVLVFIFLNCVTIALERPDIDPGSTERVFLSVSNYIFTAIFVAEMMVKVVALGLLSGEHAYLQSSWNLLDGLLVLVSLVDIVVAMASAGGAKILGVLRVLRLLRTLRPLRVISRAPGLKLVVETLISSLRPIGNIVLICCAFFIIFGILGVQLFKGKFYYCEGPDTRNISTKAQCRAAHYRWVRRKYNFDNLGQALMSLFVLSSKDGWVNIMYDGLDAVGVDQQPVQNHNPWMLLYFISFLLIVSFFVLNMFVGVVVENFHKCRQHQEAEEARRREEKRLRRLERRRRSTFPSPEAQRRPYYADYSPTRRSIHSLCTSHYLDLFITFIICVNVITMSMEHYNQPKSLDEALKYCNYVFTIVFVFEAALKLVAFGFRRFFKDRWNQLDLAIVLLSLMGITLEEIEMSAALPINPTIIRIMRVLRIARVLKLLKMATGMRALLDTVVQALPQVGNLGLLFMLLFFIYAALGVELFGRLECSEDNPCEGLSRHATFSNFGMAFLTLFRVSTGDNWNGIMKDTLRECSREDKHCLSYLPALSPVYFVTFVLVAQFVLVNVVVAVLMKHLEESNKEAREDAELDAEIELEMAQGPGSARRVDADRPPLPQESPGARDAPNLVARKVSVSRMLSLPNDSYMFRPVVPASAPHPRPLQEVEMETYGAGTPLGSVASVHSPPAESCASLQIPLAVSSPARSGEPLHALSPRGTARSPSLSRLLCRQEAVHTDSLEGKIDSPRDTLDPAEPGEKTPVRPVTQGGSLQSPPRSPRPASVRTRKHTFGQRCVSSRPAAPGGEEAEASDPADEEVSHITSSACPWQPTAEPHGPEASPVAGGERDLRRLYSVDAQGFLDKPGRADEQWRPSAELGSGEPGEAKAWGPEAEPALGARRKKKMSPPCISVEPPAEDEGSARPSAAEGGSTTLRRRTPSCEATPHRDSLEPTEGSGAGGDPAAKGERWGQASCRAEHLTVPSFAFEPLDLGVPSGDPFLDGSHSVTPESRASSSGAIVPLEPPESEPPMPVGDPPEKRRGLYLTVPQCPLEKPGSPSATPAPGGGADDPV

Row | IC50 [nM] | Compound
1 | 4.4 | O=c1nc(N2CC=C(c3ccc(F)c(Cl)c3)[C@@H](O)C2)ncn1Cc1ccc(Cl)s1 [compound 400]
2 | 2 | Cc1nc(N2CC=C(c3ccc(F)cc3)[C@@H](O)C2)nc(=O)n1Cc1ccc(Cl)s1 [compound 403]
3 | 6.9 | COc1nc(C2=CCN(c3ncn(Cc4ccc(C(C)(C)C)s4)c(=O)n3)C[C@@H]2O)ccc1Cl [compound 413]
4 | 16 | Cc1nc(C2=CCN(c3ncn(Cc4ccc(C(C)(C)C)s4)c(=O)n3)C[C@@H]2O)ccc1F [compound 415]
5 | 40 | Cc1cc(F)ccc1C1=CCN(c2nc(C)n(Cc3ccc(C(C)(C)C)s3)c(=O)n2)C[C@@H]1O [compound 423]
6 | 5.5 | O=c1nc(N2CC=C(c3ccc(F)c(Cl)c3)[C@@H](O)C2)ncn1Cc1cc2c(s1)CCCC2 [compound 428]
7 | 160 | Cc1cccc(C2=CCN(c3ncn(Cc4cc5c(s4)CCCC5)c(=O)n3)C[C@@H]2O)n1 [compound 430]
8 | 330 | Cc1cc(N2CCN(c3ncn(Cc4ccc(C(F)(F)F)o4)c(=O)n3)CC2)cs1 [compound 436]
9 | 6.9 | Cc1nc(N2CC=C(c3ccc(F)cc3)[C@@H](O)C2)nc(=O)n1Cc1ccc(C(F)(F)F)o1 [compound 439]
10 | 16 | Cc1ccc(C2=CCN(c3nc(C)n(Cc4ccc(OS(=O)(=O)C(F)(F)F)nc4)c(=O)n3)C[C@@H]2O)cc1F [compound 448]
11 | 46 | COc1nc(C2=CCN(c3nc(C)n(Cc4ccc(OS(=O)(=O)C(F)(F)F)nc4)c(=O)n3)C[C@@H]2O)ccc1Cl [compound 450]
12 | 24 | Cc1nc(N2CC=C(c3ccc(F)cc3)[C@@H](O)C2)nc(=O)n1C(C)c1ccc(C(F)(F)F)s1 (stereo partly drawn) [compound 453]
13 | 1.9 | Cc1nc(N2CC=C(c3ccc(F)cc3)[C@@H](O)C2)nc(=O)n1Cc1ccc(C(F)(F)C(F)(F)F)s1 [compound 454]
14 | 13 | CC(=O)OCc1nc(N2CC=C(c3ccc(F)cc3)[C@@H](O)C2)nc(=O)n1Cc1ccc(C(F)(F)F)s1 [compound 457]
15 | 61 | CCCc1nc(N2CC=C(c3ccc(F)cc3)CC2)nc(=O)n1Cc1ccc(C(F)(F)F)s1 [compound 460]
16 | 400 | Cc1nc(N2CCN(c3ccc(F)cc3)CC2)nc(=O)n1CC12CC3CC(CC(C3)C1)C2 [compound 461]
17 | 610 | CN(C)Cc1nc(N2CCN(c3ccc(F)cc3)CC2)nc(=O)n1Cc1ccc(C(F)(F)F)s1 [compound 462]
18 | 280 | O=c1nc(NC2CCC(O)(c3ccc(F)cc3)C2O)ncn1Cc1ccc(Cl)cc1 (stereo not drawn) [compound 465]
19 | 68 | O=c1nc(N2CC=C(c3ccc(F)cc3)CC2)ncn1Cc1ccc(OCC(F)(F)F)cc1 [compound 468]
20 | 39 | COC1CN(c2ncn(Cc3ccc(C(F)(F)F)s3)c(=O)n2)CC=C1c1ccc(F)cc1 (stereo not drawn) [compound 475]
21 | 61 | CC(=O)OC1CN(c2ncn(Cc3ccc(C(F)(F)F)s3)c(=O)n2)CC=C1c1ccc(F)cc1 (stereo not drawn) [compound 476]
22 | 66 | O=c1nc(N2CC=C(c3ccc(F)cc3)CC2)ncn1Cc1ccc(C2CC2)s1 [compound 479]
23 | 470 | CN(C)C1CN(c2ncn(Cc3ccc(C(F)(F)F)s3)c(=O)n2)CC=C1c1ccc(F)cc1 (stereo not drawn) [compound 481]
24 | 240 | O=c1nc(N2C=CC(c3ccc(F)cc3)=CC2)ncn1Cc1ccc(C(F)(F)F)s1 [compound 484]
25 | 410 | Cc1nc(N2CCC(c3ccc(F)cc3)C(CO)(CO)C2)nc(=O)n1Cc1ccc(C(F)(F)F)s1 (stereo not drawn) [compound 485]
26 | 410 | Cc1nc(N2CC=C(c3ccc(F)cc3)C3(COCOC3)C2)nc(=O)n1Cc1ccc(C(F)(F)F)s1 [compound 486]
27 | 500 | Cc1nc(N2CCN(CC(=O)C34CC5CC(CC(C5)C3)C4)CC2)nc(=O)n1Cc1ccc(C(F)(F)F)s1 [compound 487]
28 | 510 | Cc1nc(N2CCC(n3cc(Br)cn3)CC2)nc(=O)n1Cc1ccc(C(F)(F)F)s1 [compound 489]
29 | 3.7 | Cc1cc(C2=CCN(c3nc(C)n(Cc4cnc(C(F)(F)F)s4)c(=O)n3)C[C@@H]2O)cs1 [compound 493]

More lines, now with the values behind:

Row | Compound | IC50 [nM]
30 | N#Cc1cc(C2=CCN(c3ncn(Cc4ccc(C(F)(F)F)s4)c(=O)n3)CC2)ccc1F [compound 278] | 45
31 | O=c1nc(N2CC=C(c3cn4c(n3)CCC4)CC2)ncn1Cc1ccc(C(F)(F)F)s1 [compound 283] | 510
32 | O=c1nc(N2CC=C(c3cc(F)cc(F)c3)CC2)ncn1Cc1ccc(C(F)(F)F)s1 [compound 285] | 56
33 | O=c1nc(N2CC=C(c3ccc4ocnc4c3)CC2)ncn1Cc1ccc(C(F)(F)F)s1 [compound 295] | 180
34 | COc1ccc(C2=CCN(c3ncn(Cc4ccc(C(F)(F)F)s4)c(=O)n3)CC2)s1 [compound 300] | 160
35 | O=c1nc(N2CC=C(c3ccc(F)c(O)c3)CC2)ncn1Cc1ccc(C(F)(F)F)s1 [compound 304] | 64
36 | O=c1nc(N2CC3C(C2)C3c2ccc(F)cc2)ncn1Cc1ccc(C(F)(F)F)s1 (stereo not drawn) [compound 311] | 160
37 | CC(C)(C)OC(=O)N1C[C@@H](CNc2ncn(Cc3ccc(C(F)(F)F)s3)c(=O)n2)[C@H](c2ccc(F)cc2)C1 [compound 312] | 550
38 | CS(=O)(=O)NC1CN(c2ncn(Cc3ccc(C(F)(F)F)s3)c(=O)n2)CC=C1c1ccc(F)cc1 (stereo not drawn) [compound 314] | 46
39 | O=c1nc(N2CC=C(c3ccc(F)cc3)[C@@H](O)C2)ncn1Cc1ccc(C(F)(F)F)s1 [compound 315] | 0.46
40 | O=c1nc(N2CC=C(c3ccc(F)cc3)[C@H](O)C2)ncn1Cc1ccc(C(F)(F)F)s1 [compound 316] | 2.3
41 | CC(=O)NC1CN(c2ncn(Cc3ccc(C(F)(F)F)s3)c(=O)n2)CC=C1c1ccc(F)cc1 (stereo not drawn) [compound 317] | 56
42 | O=c1nc(N[C@H]2C[C@@H](c3ccc(F)cc3)C2)ncn1Cc1ccc(C(F)(F)F)s1 [compound 318] | 33
43 | NC1CN(c2ncn(Cc3ccc(C(F)(F)F)s3)c(=O)n2)CC=C1c1ccc(F)cc1 (stereo not drawn) [compound 321] | 3.6
44 | O=c1nc(N2CC=C(c3ccc(F)c(Cl)c3)[C@@H](O)C2)ncn1Cc1ccc(C(F)(F)F)s1 [compound 326] | 1.9
45 | Cc1csc(C2=CCN(c3ncn(Cc4ccc(C(F)(F)F)s4)c(=O)n3)C[C@@H]2O)c1 [compound 327] | 4
46 | COc1nc(C2=CCN(c3ncn(Cc4ccc(C(F)(F)F)s4)c(=O)n3)C[C@@H]2O)ccc1Cl [compound 329] | 4.8
47 | Cc1cc(C2=CCN(c3ncn(Cc4ccc(C(F)(F)F)s4)c(=O)n3)C[C@@H]2O)cs1 [compound 333] | 1.8
48 | Cc1nc(N2CC=C(c3ccc(F)cc3)CC2)nc(=O)n1Cc1ccc(C(F)(F)F)s1 [compound 340] | 13

Row | Compound | IC50 [nM]
49 | Cc1nc(N2CC=C(c3ccc(F)cc3)[C@@H](O)C2)nc(=O)n1Cc1ccc(C(F)(F)F)s1 [compound 342] | 0.94
50 | Cc1nc(N2CCN(c3ccc(F)cc3)CC2)nc(=O)n1Cc1ccc(C(F)(F)F)s1 [compound 344] | 12
51 | Cc1nc(N2CC=C(c3ccc(F)cc3)[C@@H](N)C2)nc(=O)n1Cc1ccc(C(F)(F)F)s1 [compound 348] | 4.5
52 | Cc1ccc(C2=CCN(c3nc(C)n(Cc4ccc(C(F)(F)F)s4)c(=O)n3)C[C@@H]2O)cc1F [compound 349] | 1.1
53 | Cc1nc(N2CC=C(c3ccc(F)c(Cl)c3)[C@@H](O)C2)nc(=O)n1Cc1ccc(C(F)(F)F)s1 [compound 350] | 1.1
54 | Cc1cc(N2CCN(c3nc(C)n(Cc4ccc(C(F)(F)F)s4)c(=O)n3)CC2)cs1 [compound 357] | 13
55 | Cc1nc(N[C@H]2C[C@@H](c3ccc(F)cc3)C2)nc(=O)n1Cc1ccc(C(F)(F)F)s1 [compound 360] | 83
56 | Cc1csc(C2=CCN(c3nc(C)n(Cc4ccc(C(F)(F)F)s4)c(=O)n3)C[C@@H]2O)c1 [compound 362] | 1.5
57 | Cc1ccc(N2CCN(c3nc(C)n(Cc4ccc(C(F)(F)F)s4)c(=O)n3)CC2)cc1 [compound 363] | 8.7
58 | Cc1nc(N2CCN(c3nc(C)n(Cc4ccc(C(F)(F)F)s4)c(=O)n3)CC2)ccc1F [compound 365] | 13
59 | Cc1nc(N2CCC3(CCN(c4ccc(F)cc4)C3)CC2)nc(=O)n1Cc1ccc(C(F)(F)F)s1 [compound 370] | 630
60 | Cc1nc(N2CCN(c3ccccc3)CC(F)(F)C2)nc(=O)n1Cc1ccc(C(F)(F)F)s1 [compound 377] | 410
61 | Cc1nc(N2CC=C(c3ccc(F)cc3)C(CO)C2)nc(=O)n1Cc1ccc(C(F)(F)F)s1 (stereo not drawn) [compound 379] | 54
62 | Cc1nc(N2CC3CCC(C2)N3c2ccc(F)cc2)nc(=O)n1Cc1ccc(C(F)(F)F)s1 [compound 380] | 310
63 | Cc1nc(N2CCN(C34CC5CC(CC(C5)C3)C4)CC2)nc(=O)n1Cc1ccc(C(F)(F)F)s1 [compound 382] | 860
64 | Cc1nc(Nc2nc(-c3ccc(F)c(F)c3)cs2)nc(=O)n1Cc1ccc(C(F)(F)F)s1 [compound 383] | 89
65 | Cc1ccc(C2=CCN(c3nc(C)n(Cc4ccc(Br)s4)c(=O)n3)C[C@@H]2O)cc1F [compound 392] | 1.3
66 | COc1nc(C2=CCN(c3nc(C)n(Cc4ccc(Br)s4)c(=O)n3)C[C@@H]2O)ccc1Cl [compound 395] | 1.7
